According to ChEMBL document CHEMBL2434882, “A novel [1,2,4] triazolo [1,5-a] pyrimidine-based phenyl-linked steroid dimer: synthesis and its cytotoxic activity” (Eur J Med Chem, 2013):
Calls of active or inactive are those of the source. No cut-off for these calls is given here.

What was measured:
[1] = Downregulation of MDM2 protein expression in human EC109 cells at 5 to 10 uM after 24 hrs by Western blot analysis; type: functional, cell-based; details: ECa-109
ECa-109 = assay: Disruption of mitochondrial membrane potential in human EC109 cells after 24 hrs by JC1 staining-based flow cytometric analysis; type: functional, cell-based
[2] = Disruption of mitochondrial membrane potential in human EC109 cells at 5 uM after 24 hrs by JC1 staining-based flow cytometric analysis (reference value: 8.1%); type: functional, ECa-109
ECa-109 cell line [3] = assay: Induction of apoptosis in human EC109 cells assessed as nuclear fragmentation at 1.25 to 20 uM after 24 hrs by Hoechst 33258 staining-based fluorescence microscopic analysis; type: functional, cell-based
[4] = Cell cycle arrest in human EC109 cells assessed as accumulation at G2/M phase at 2.5 to 10 uM by propidium iodide staining-based flow cytometric analysis; type: functional; details: ECa-109, TDE = time-dependent effect
[5] = Cell cycle arrest in human EC109 cells assessed as accumulation at G2/M phase after 12 to 24 hrs by propidium iodide staining-based flow cytometric analysis; type: functional; details: ECa-109
[6] = Cell cycle arrest in human EC109 cells assessed as accumulation at S phase at 10 uM after 24 hrs by propidium iodide staining-based flow cytometric analysis (reference value: 37.99%); type: functional; details: ECa-109
[7] = Cell cycle arrest in human EC109 cells assessed as accumulation at G0/G1 phase at 5 uM after 24 hrs by propidium iodide staining-based flow cytometric analysis (reference value: 51.57%); type: functional; details: ECa-109
[8] = Cell cycle arrest in human EC109 cells assessed as accumulation at S phase at 2.5 uM after 24 hrs by propidium iodide staining-based flow cytometric analysis (reference value: 37.99%); type: functional; details: ECa-109
[9] = Cell cycle arrest in human EC109 cells assessed as accumulation at G0/G1 phase at 2.5 uM after 24 hrs by propidium iodide staining-based flow cytometric analysis (reference value: 51.57%); type: functional; details: ECa-109
[10] = Cell cycle arrest in human EC109 cells assessed as accumulation at G0/G1 phase at 10 uM after 12 hrs by propidium iodide staining-based flow cytometric analysis (reference value: 50.87%); type: functional; details: ECa-109
[11] = Cell cycle arrest in human EC109 cells assessed as accumulation at G2/M phase at 5 uM after 12 hrs by propidium iodide staining-based flow cytometric analysis (reference value: 13.72%); type: functional; details: ECa-109
[12] = Cell cycle arrest in human EC109 cells assessed as accumulation at S phase at 2.5 uM after 12 hrs by propidium iodide staining-based flow cytometric analysis (reference value: 33.29%); type: functional; details: ECa-109
ECa-109 cell line [13] = assay: Induction of apoptosis in human EC109 cells assessed as increase in early apoptotic cells at 2.5 to 40 uM by annexin V-FITC/propidium iodide staining-based flow cytometric analysis; type: functional, cell-based; details: TDE = time-dependent effect
ECa-109 cell line [14] = assay: Induction of apoptosis in human EC109 cells assessed as damaged cells at 40 uM after 24 hrs by annexin V-FITC/propidium iodide staining-based flow cytometric analysis (reference value: 0.1%); type: functional
ECa-109 cell line [15] = assay: Induction of apoptosis in human EC109 cells assessed as damaged cells at 20 uM after 24 hrs by annexin V-FITC/propidium iodide staining-based flow cytometric analysis (reference value: 0.1%); type: functional
ECa-109 cell line [16] = assay: Induction of apoptosis in human EC109 cells assessed as late apoptotic cells at 20 uM after 24 hrs by annexin V-FITC/propidium iodide staining-based flow cytometric analysis (reference value: 2.5%); type: functional
ECa-109 cell line [17] = assay: Induction of apoptosis in human EC109 cells assessed as live cells at 10 uM after 24 hrs by annexin V-FITC/propidium iodide staining-based flow cytometric analysis (reference value: 93.6%); type: functional
ECa-109 cell line [18] = assay: Induction of apoptosis in human EC109 cells assessed as late apoptotic cells at 5 uM after 24 hrs by annexin V-FITC/propidium iodide staining-based flow cytometric analysis (reference value: 2.5%); type: functional
ECa-109 cell line [19] = assay: Induction of apoptosis in human EC109 cells assessed as early apoptotic cells at 5 uM after 24 hrs by annexin V-FITC/propidium iodide staining-based flow cytometric analysis (reference value: 3.8%); type: functional
ECa-109 cell line [20] = assay: Induction of apoptosis in human EC109 cells assessed as late apoptotic cells at 40 uM after 12 hrs by annexin V-FITC/propidium iodide staining-based flow cytometric analysis (reference value: 1.4%); type: functional
ECa-109 cell line [21] = assay: Induction of apoptosis in human EC109 cells assessed as early apoptotic cells at 40 uM after 12 hrs by annexin V-FITC/propidium iodide staining-based flow cytometric analysis (reference value: 6.1%); type: functional
ECa-109 cell line [22] = assay: Induction of apoptosis in human EC109 cells assessed as late apoptotic cells at 20 uM after 12 hrs by annexin V-FITC/propidium iodide staining-based flow cytometric analysis (reference value: 1.4%); type: functional
ECa-109 cell line [23] = assay: Induction of apoptosis in human EC109 cells assessed as damaged cells at 10 uM after 12 hrs by annexin V-FITC/propidium iodide staining-based flow cytometric analysis (reference value: 0.4%); type: functional
ECa-109 cell line [24] = assay: Induction of apoptosis in human EC109 cells assessed as late apoptotic cells at 5 uM after 12 hrs by annexin V-FITC/propidium iodide staining-based flow cytometric analysis (reference value: 1.4%); type: functional
ECa-109 cell line [25] = assay: Induction of apoptosis in human EC109 cells assessed as early apoptotic cells at 5 uM after 12 hrs by annexin V-FITC/propidium iodide staining-based flow cytometric analysis (reference value: 6.1%); type: functional
ECa-109 cell line [26] = assay: Induction of apoptosis in human EC109 cells assessed as late apoptotic cells at 2.5 uM after 12 hrs by annexin V-FITC/propidium iodide staining-based flow cytometric analysis (reference value: 1.4%); type: functional
[27] = Selectivity ratio of IC50 for human L02 cells to IC50 for human SMMC7721 cells; type: cell-based, SMMC-7721; details: L02 cells versus SMMC7721 cells, read-out: Ratio IC50
ECa-109 cell line [28] = assay: Induction of apoptosis in human EC109 cells assessed as early apoptotic cells at 2.5 uM after 12 hrs by annexin V-FITC/propidium iodide staining-based flow cytometric analysis (reference value: 6.1%); type: functional
[29] = Cytotoxicity against human L02 cells assessed as cell viability at 20 uM after 72 hrs by MTT assay relative to control; type: cell-based; details: read-out: Activity
MCF7 = assay: Cytotoxicity against human MCF7 cells assessed as growth inhibition after 72 hrs by MTT assay; type: functional, cell-based; details: MCF7, 72 h
SMMC-7721 = assay: Cytotoxicity against human SMMC7721 cells assessed as growth inhibition after 72 hrs by MTT assay; type: functional, cell-based; details: SMMC-7721, 72 h
[30] = Cytotoxicity against human EC109 cells assessed as growth inhibition after 72 hrs by MTT assay; type: functional, cell-based; details: ECa-109, 72 h
ECa-109 cell line [31] = assay: Induction of apoptosis in human EC109 cells assessed as increase in late apoptotic cells at 2.5 to 40 uM by annexin V-FITC/propidium iodide staining-based flow cytometric analysis; type: functional, cell-based; details: TDE = time-dependent effect
ECa-109 cell line [32] = assay: Induction of apoptosis in human EC109 cells assessed as increase in late apoptotic cells after 12 to 24 hrs by annexin V-FITC/propidium iodide staining-based flow cytometric analysis; type: functional, cell-based
ECa-109 cell line [33] = assay: Induction of apoptosis in human EC109 cells assessed as induction of cytochrome c release from mitochondria at 5 to 10 uM after 24 hrs by Western blot analysis; type: functional, cell-based

With `C[C@]12CC[C@H](O)CC1=CC[C@@H]1[C@@H]2CC[C@]2(C)c3nc4ncnn4c(-c4cccc(-c5c6c(nc7ncnn57)[C@@]5(C)CC[C@H]7[C@@H](CC=C8C[C@@H](O)CC[C@@]87C)[C@@H]5C6)c4)c3C[C@@H]12` the Activity [1] was “Active”, the Activity (ECa-109) was “Dose-dependent effect” and the Activity [2] was 40%. For the same compound, the Activity (ECa-109 cell line [3]) was “Active”, the Activity [4] was “tde” and the Activity [5] was “Dose-dependent effect”. It also gave an Activity [6] of 28.5%, an Activity [7] of 47.1% and an Activity [8] of 43.5%. It also gave an Activity [9] of 52.5%, an Activity [10] of 48.6% and an Activity [11] of 20.8%. For the same compound, the Activity [12] was 34.2%, the Activity (ECa-109 cell line [13]) was “tde” and the Activity (ECa-109 cell line [14]) was 1.3%. It also gave an Activity (ECa-109 cell line [15]) of 2.4%, an Activity (ECa-109 cell line [16]) of 58.9% and an Activity (ECa-109 cell line [17]) of 25.4%. The Activity (ECa-109 cell line [18]) was 12.2%, the Activity (ECa-109 cell line [19]) was 39.1% and the Activity (ECa-109 cell line [20]) was 65.3%. For the same compound, the Activity (ECa-109 cell line [21]) was 12.2%, the Activity (ECa-109 cell line [22]) was 51.1% and the Activity (ECa-109 cell line [23]) was 2.7%. It also gave an Activity (ECa-109 cell line [24]) of 14%, an Activity (ECa-109 cell line [25]) of 24.1% and an Activity (ECa-109 cell line [26]) of 13.1%. For the same compound, the selectivity ratio [27] was 49, the Activity (ECa-109 cell line [28]) was 26.9% and the viability at 72 h, 20 µM [29] was 70%. For the same compound, the IC50 (MCF7) was 1190 nM, the IC50 (SMMC-7721) was 1680 nM and the IC50 [30] was 2360 nM. The Activity (ECa-109 cell line [31]) was “tde”, the Activity (ECa-109 cell line [32]) was “Dose-dependent effect” and the Activity (ECa-109 cell line [33]) was “Active”.
